Experimental data published in patent US7662802B2, “Halide-free glucosamine-acidic drug complexes” (Gluconova, LLC, priority 2004, dated 2010).

Experiment: stability of halide-free glucosamine at ambient temperature and/or the atmosphere
Type: physicochemical

- hygroscopicity: quite hygroscopic
- stability on storage (subjected to ambient temperature and/or to the atmosphere): will decompose over a period of time
SMILES: N[C@H]1C(O)O[C@H](CO)[C@@H](O)[C@@H]1O (some centres unmarked) [halide-free glucosamine, glucosamine]
